Laboratory results as given in publication PMC8132994, “NanoFAST: structure-based design of a small fluorogen-activating protein with only 98 amino acids” (Chemical Science, 2021).

Target: T1, FAST (Halorhodospira halophila, UniProt P16113, C69G/Y94W/T95M/F96I/D97P/Y98T/Q99S/M100R/T101G)
T1 construct: gene pyp; C-terminal His6 tag in NMR structure
T1 sequence (P16113 1-125 C69G/Y94W/T95M/F96I/D97P/Y98T/Q99S/M100R/T101G): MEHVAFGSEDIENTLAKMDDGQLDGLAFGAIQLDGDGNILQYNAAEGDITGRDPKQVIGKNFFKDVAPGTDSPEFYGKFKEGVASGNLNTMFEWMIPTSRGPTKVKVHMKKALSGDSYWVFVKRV
Experiment: solution NMR structure of the complex
Type: binding
Details: pH 7.0, 25 °C (1H NMR spectra); 13C/15N-labelled protein

## COc1cc(O)ccc1/C=C1N=C(/C=C/c2ccncc2)N(C)C\1=O [N871b]
  solution NMR structure of the complex: solved the spatial structure of the protein in complex with a promising ligand N871b
